Test results as given in the supplement of paper PMC10307832.

Assays:
Test in all cases: relative viability (nuclei count vs DMSO), 5 days (fraction); higher = more cells survive
AZD6482 + Foretinib = compound: Cc1cc([C@@H](C)Nc2ccccc2C(=O)O)c2nc(N3CCOCC3)cc(=O)n2c1 [AZD6482] + COc1cc2c(Oc3ccc(NC(=O)C4(C(=O)Nc5ccc(F)cc5)CC4)cc3F)ccnc2cc1OCCCN1CCOCC1 [Foretinib] (partner 0.25 µM)
How it was run: (§1)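 The day after seeding in 1536-well plates, lung cancer cell lines were treated by pin tool with a single drug, or with a fixed anchor-drug dose together with five library-drug doses (not always all listed) in √10 steps. After 5 days, a combined fix-and-stain solution (final 0.05% Triton X-100, 1% formaldehyde, 1 ug/ml Hoechst) was added. Nuclei counted on 4× images gave relative viability as treated counts over vehicle counts, reported as the median of duplicate plates.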

AZD6482 + Linsitinib = compound: Cc1cc([C@@H](C)Nc2ccccc2C(=O)O)c2nc(N3CCOCC3)cc(=O)n2c1 [AZD6482] + C[C@]1(O)C[C@@H](c2nc(-c3ccc4ccc(-c5ccccc5)nc4c3)c3c(N)nccn32)C1 [Linsitinib] (partner 1 µM)
How it was run: as §1

AZD6482 + Pictilisib = compound: Cc1cc([C@@H](C)Nc2ccccc2C(=O)O)c2nc(N3CCOCC3)cc(=O)n2c1 [AZD6482] + CS(=O)(=O)N1CCN(Cc2cc3nc(-c4cccc5[nH]ncc45)nc(N4CCOCC4)c3s2)CC1 [Pictilisib] (partner 1 µM)
How it was run: as §1

AZD6482 + Luminespib = compound: Cc1cc([C@@H](C)Nc2ccccc2C(=O)O)c2nc(N3CCOCC3)cc(=O)n2c1 [AZD6482] + CCNC(=O)c1noc(-c2cc(C(C)C)c(O)cc2O)c1-c1ccc(CN2CCOCC2)cc1 [Luminespib] (partner 0.01 µM)
How it was run: as §1

UMC-11
relative viability (AZD6482 + Foretinib; first compound 0.08 µM): 1.01 | relative viability (AZD6482 + Foretinib; first compound 0.253 µM): 0.988 | relative viability (AZD6482 + Foretinib; first compound 0.8 µM): 0.997 | relative viability (AZD6482 + Foretinib; first compound 2.53 µM): 0.815 | relative viability (AZD6482 + Foretinib; first compound 8 µM): 1.13 | relative viability (AZD6482 + Linsitinib; first compound 0.08 µM): 0.959 | relative viability (AZD6482 + Linsitinib; first compound 0.253 µM): 0.962 | relative viability (AZD6482 + Linsitinib; first compound 0.8 µM): 0.987 | relative viability (AZD6482 + Linsitinib; first compound 2.53 µM): 0.787 | relative viability (AZD6482 + Linsitinib; first compound 8 µM): 1 | relative viability (AZD6482 + Pictilisib; first compound 0.08 µM): 0.757 | relative viability (AZD6482 + Pictilisib; first compound 0.253 µM): 0.817 | relative viability (AZD6482 + Pictilisib; first compound 0.8 µM): 0.841 | relative viability (AZD6482 + Pictilisib; first compound 2.53 µM): 0.503 | relative viability (AZD6482 + Pictilisib; first compound 8 µM): 1.04 | relative viability (AZD6482 + Luminespib; first compound 0.08 µM): 0.986 | relative viability (AZD6482 + Luminespib; first compound 0.253 µM): 0.994 | relative viability (AZD6482 + Luminespib; first compound 0.8 µM): 0.929 | relative viability (AZD6482 + Luminespib; first compound 2.53 µM): 0.869 | relative viability (AZD6482 + Luminespib; first compound 8 µM): 1.26
